“Also recorded” adds a separate entry of the source. Ends that are not written are not given here. * marks the point of attachment. FITC = O=C1OC2(c3ccc(O)cc3Oc3cc(O)ccc32)c2ccc(NC(=S)*)cc21
How the values were obtained:
TRAMP PIN lesions = assay: In vivo phage homing to TRAMP pre-malignant (PIN) lesions; set-up: species or system mouse; settings: phage clones tested in vivo individually
Experimental: (§1) The following cell lines were maintained in DMEM supplemented with 10% FCS: C8161 human melanoma, MDA-MB-435 human breast cancer, KRIB human osteosarcoma, and human prostate cancer cells PPC1, DU145. LNCaP human prostate cancer cell line was grown in RPMI 1640 medium with 10 mM HEPES, 1 mM sodium pyruvate and 1.5 g/L sodium bicarbonate supplemented with 10% FCS. M12 human prostate cancer cell line was cultured in RPMI 1640 with 5 μg/ml insulin-transferrin-sodium selenite (ITS), 2.5 μg/ml fungizone, 50 μg/ml gentamycin, 0.2 μM dexamethasone, 10 ng/ml epidermal growth factor (EGF), and 5% FCS (Bae et al., 1998). To produce tumors, nude BALB/c and C56BL/6 mice were subcutaneously (C8161, KRIB, and PPC1) or orthotopically ([…], PPC1, DU145, M12, and LNCaP) injected with 1×10^6 tumor cells. Transgenic mouse tumor models included TRAMP prostate cancer, MMTV-PyMT breast cancer, and K14-HPV16 cervical cancer. To initiate cervical carcinogenesis, female K14-HPV16 mice (Arbeit et al., 1994) were treated with 17β-estradiol (E2; (Arbeit et al., 1996; Giraudo et al., 2004). Briefly, one-month-old virgin female transgenic (heterozygous K14-HPV16, 1203#1) and nontransgenic (FVB/n) mice were anesthetized with isoflurane, and continuous release pellets that deliver E2 at doses of 0.05 mg over 60 days (Innovative Research of America, Sarasota, Fla., USA) were implanted subcutaneously in the dorsal back skin. Subsequent pellets were implanted at 3 and 5 months of age for a total of 6 months of hormone treatment. K14-HPV16 mice were maintained in the FVB/n background (FVB/n; The Jackson Laboratory). The mice were maintained in accordance with the University of California, San Francisco (UCSF) institutional guidelines governing the care of laboratory mice. The animal experimentation was approved by Animal Research Committees at UCSF or The Burnham Institute.
(§2) In vivo homing specificity of phage was tested as described (Hoffman, 2004). Briefly, mice bearing tumors were anesthetized and intravenously injected with 5×10^9 pfu of phage. After 7 min, the mice were perfused through the heart with PBS containing 0.5% BSA. The tumor and control organs were dissected from each mouse and the phage were rescued and tittered. For histology analysis, the mice were perfused with 4% PFA 30 min after the injection of phage. Tissues were embedded in Tissue-Tek O.C.T. and 5 μm sections were prepared for phage immunostaining.

[1] = system: cell suspension derived from pre-malignant prostate lesions; assay: Phage binding to cell suspension derived from pre-malignant prostate lesions; format: cell-based, mouse; settings: phage clones
Experimental: (§3) An NNK-encoded CX7C library display on T7Select415-1 phage (Novagen) was prepared as previously described (Laakkonen et al., 2002). Phage selection and validation have been described (Hoffman, 2004). A two-step procedure was designed for the selection of peptides targeting the tumor lymphatic vessels of pre-malignant prostate lesions and prostate tumor. First, the phage library was incubated with cells derived from normal prostate to subtract the phage that bind to normal prostate. Second, the anti-podoplanin magnetic beads were used to isolate lymphatic endothelial cells. 2-3 rounds of ex vivo selection and 2-3 rounds of in vivo selections were performed. For the ex vivo selections, cell suspensions were prepared from normal prostates of tumor-free littermates of TRAMP mice, pre-malignant prostates of 14- to 16-week-old TRAMP mice, and tumor tissues of 25- to 28-week-old TRAMP mice. Collagenase IA (1 mg/ml, Sigma) was used to disperse the tissues. About 1×10^7 normal prostate cells were incubated at 4° C. for 3 hrs with […] plaque forming units (pfu) of T7 phage displaying a CX7C peptide library. The samples were centrifuged at 1200 rpm for 10 min, the supernatant (the normal prostate-subtracted phage library) was recovered and then incubated overnight at 4° C. with 5×10^7 cells derived from pre-malignant prostate tissue or prostate tumor. The cells were washed to remove unbound phage, incubated with rat anti-mouse podoplanin for 45 min at 4° C., and washed three times with cold PBS containing 0.5% BSA. Podoplanin-positive cells were then isolated using M450 sheep anti-rat IgG Dynabeads (M450; Dynal, Oslo, Norway). Phage that bound to the podoplanin-positive cell population were rescued and amplified in E. coli. In vivo phage library screening was performed as described (Laakkonen et al., 2002).

normal tissues = assay: In vivo phage homing to normal and control tissues; set-up: species or system mouse; settings: i.v. injected phage
Experimental: as §2

[2] = system: MDA-MB-435 orthotopic xenografts; assay: In vivo phage homing to MDA-MB-435 orthotopic xenografts; set-up: species or system mouse; settings: for phage homing to MDA-MB-435 tumors (in words): i.v. injected phage
Experimental: as §1, §2

CXCR4 = biological target: T1, CXCR4 (Homo sapiens, UniProt P61073); assay: Phage binding to CXCR4-transfected 293T cells; settings: 293T cells
T1 construct: expressed in transfected cells; host or cells: 293T cells, transient transfection with FuGene 6
T1 sequence (P61073 whole entry, species assumed): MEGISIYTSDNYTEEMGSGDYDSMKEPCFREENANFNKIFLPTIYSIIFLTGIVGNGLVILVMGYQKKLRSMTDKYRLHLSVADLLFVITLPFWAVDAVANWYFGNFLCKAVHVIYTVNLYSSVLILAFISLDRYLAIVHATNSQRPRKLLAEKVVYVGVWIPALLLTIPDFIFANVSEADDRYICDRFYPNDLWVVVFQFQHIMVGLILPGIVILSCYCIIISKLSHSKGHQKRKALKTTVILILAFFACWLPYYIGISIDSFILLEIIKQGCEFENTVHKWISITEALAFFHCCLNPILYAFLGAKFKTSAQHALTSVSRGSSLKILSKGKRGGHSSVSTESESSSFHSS
Experimental: (§4) The 293T cells were transfected with plasmids encoding CXCR4 (Helbig et al., 2003) or VEGFR2 (Borges et al., 2000) using FuGene 6 transfection reagent (Roche Diagnostics, Indianapolis, Ind.). Briefly, plasmid (10 μg) was mixed with 900 μl of serumfree DMEM and 50 μl of FuGene and incubated for 15 min at room temperature before adding the mixture to the cells. The cells were detached using EDTA after 48 hrs post transfection and washed with PBS containing 1% BSA. Phage (5×10^9 pfu) were incubated with the transfected cells and bound phage were rescued and titrated. For competitive binding assay, the cognate peptide (150 μg/ml) or antibody (50 μg/ml) was added during incubating of the phage with cells. Targeted proapoptotic peptide treatment of tumor-bearing mice Prostate cancer model. Orthotopic xenografted prostate tumors were established by injecting 1×10^6 PPC1 human prostate cancer cells into the mouse prostate. Fifteen days post inoculation, the mice were intravenously injected with D(KLAKLAK)2-CREAGRKAC (SEQ ID NO:41), an equimolar mixture of D(KLAKLAK)2 (SEQ ID NO:19) and CREAGRKAC (SEQ ID NO:6), or PBS. Biweekly injections of 100 μg/dose/mouse were given for three weeks. Melanoma model. Nude BALB/c mice were subcutaneously injected with 1×10^6 C8161 human melanoma cells. Treatment started when mean tumor volumes reached about 100 mm3. Mice with size-matched tumors were randomized into three groups. The therapeutic group received a chimera of tumor homing peptide with the proapoptotic motif (D(KLAKLAK)2-CLSDCGKRKC; SEQ ID NO:42). The control groups received an equimolar mixture of CLSDGKRKC (SEQ ID NO:4) and D(KLAKLAK)2 (SEQ ID NO:19), or PBS alone. The tumor-bearing mice were intravenously injected with 200 μg/dose/mouse once a week for three weeks. The mice were monitored for weight loss, and tumors were dissected and weighed at the termination of the experiment. Histological analysis was performed to evaluate the density of tumor lymphatics and blood vessels. The animal experiments reported here were approved by The Burnham Institute Animal Research Committee.

[3] = system: K14-HPV16/E2 cervical tumors; assay: In vivo phage homing to K14-HPV16/E2 cervical tumors; set-up: species or system mouse; settings: for phage homing to K14-HPV16/E2 cervical tumors (in words): i.v. injected phage
Experimental: as §1, §2

K14-HPV16 skin cancer = assay: In vivo homing to K14-HPV16 skin cancer; set-up: species or system mouse; settings: i.v. injection, K14-HPV16 mice
Experimental: as §1, §2

TRAMP prostate tumors = assay: In vivo phage homing to TRAMP prostate tumors; set-up: species or system mouse; settings: i.v. injected phage clone
Experimental: as §1, §2

[4] = system: tumor derived cell suspensions (TRAMP); assay: Phage binding to TRAMP tumor derived cell suspensions; format: cell-based, mouse; settings: phage clones
Experimental: as §3

[5] = system: cell suspensions prepared from C8161 tumors; assay: Phage binding to cell suspensions prepared from C8161 tumors; format: cell-based, mouse; settings: phage clone, ex vivo
C8161 xenografts = assay: In vivo phage homing to C8161 xenograft tumors; set-up: species or system mouse; settings: i.v. injected phage, C8161 xenograft mice
Experimental: as §1, §2

[6] = system: K14-HPV16/E2 cervical dysplasia; assay: In vivo phage homing to K14-HPV16/E2 cervical dysplasia (CIN-3); set-up: species or system mouse; settings: for phage homing to K14-HPV16/E2 pre-malignant cervical lesions (in words): i.v. injected phage
Experimental: as §1, §2

[7] = system: PPC1 orthotopic xenografts; assay: Targeted proapoptotic peptide treatment of mice with PPC1 orthotopic xenografts; format: in vivo; settings: 100 μg/dose/mouse biweekly i.v., three weeks
Experimental: as §4

[8] = system: K14-HPV16/E2 cervical lesions; assay: Distribution of fluorescent peptides in K14-HPV16/E2 mice with cervical lesions; format: in vivo, mouse; settings: for fluorescent peptide in normal cervix and control tissues: 100 μg i.v., 2 hrs; for fluorescent peptide in K14-HPV16/E2 cervical lesions/tumors (in words): labeled peptide i.v.
Experimental: The frozen sections were prepared for immunohistological analysis.

[9] = phage homing in vivo, K14-HPV16/E2 cervical dysplasia
[10] = phage homing in vivo, MDA-MB-435 orthotopic xenografts
[11] = phage homing in vivo, K14-HPV16/E2 cervical cancer / cervical tumors
[12] = listed as Fluoresceinlabeled LyP-2 peptide

CASLSCR
enrichment to pre-malignant TRAMP lesions relative to nonrecombinant phage (TRAMP PIN lesions): 12 fold
binding to cell suspension from pre-malignant prostate lesions (in words) [1]: bound

CGNKRTRGC [LyP-1, previously described lymphatic homing peptide recognizing breast cancer lymphatics and tumor cells, reference compound]
phage homing to normal breast tissue (normal tissues): Neither phage homed
phage homing to normal cervix (normal tissues): Neither phage homed
phage homing to MDA-MB-435 tumors (in words) [2]: homes to the MDA-MB-435 tumors
phage homing to MDA-MB-435 tumors (in words) ([2]; listed as LyP-1 phage): homed to MDA-MB-435 tumors
phage binding to CXCR4-transfected 293T cells (in words) (CXCR4): did not bind
phage homing to K14-HPV16/E2 cervical tumors (in words) [3]: not to the cervical tumors
homing to K14-HPV16 skin cancers (in words) (K14-HPV16 skin cancer): homed to the K14-HPV16 skin cancer lymphatics

CKTRVSCGV
enrichment in TRAMP tumors relative to nonrecombinant phage (TRAMP prostate tumors): about 30 fold
binding to TRAMP tumor derived cell suspensions (in words) [4]: robust binding

CLDGGRPKC
binding to cell suspensions prepared from C8161 tumors (in words) [5]: bound to cell suspensions prepared from C8161 tumors
phage homing to C8161 tumors (in words) (C8161 xenografts): homed selectively to the tumors

CNRRTKAGC [LyP-2, homing peptide from K14-HPV16 dysplastic skin lesions; homes to cervical lesion lymphatics]
phage homing to normal breast tissue (normal tissues): Neither phage homed
phage homing to normal cervix (normal tissues): Neither phage homed
phage homing to normal cervix (normal tissues; listed as LyP-2 phage): not to normal cervix
phage homing to K14-HPV16/E2 pre-malignant cervical lesions (in words) [6]: homes to the cervical cancers and pre-malignant lesions
phage homing to K14-HPV16/E2 pre-malignant cervical lesions (in words) ([6]; listed as LyP-2 phage): Significantly more; also recorded: robust homing
Fold over control phage [6, 9]: 17 fold
Specific Homing [6, 9]: Yes
Fold over control phage [2, 10]: 3 fold
Specific Homing [2, 10]: No
phage homing to K14-HPV16/E2 cervical tumors (in words) [3]: homes to the cervical cancers and pre-malignant lesions
phage homing to K14-HPV16/E2 cervical tumors (in words) ([3]; listed as LyP-2 phage): Significantly more; also recorded: robust homing
Fold over control phage [3, 11]: 22 fold
Specific Homing [3, 11]: Yes
homing to K14-HPV16 skin cancers (in words) (K14-HPV16 skin cancer): homed to the lymphatics associated with dysplasias and squamous cell carcinomas in the skin; also recorded: homed to the K14-HPV16 skin cancer lymphatics

CSGGKVLDC
enrichment to pre-malignant TRAMP lesions relative to nonrecombinant phage (TRAMP PIN lesions): 14 fold
binding to cell suspension from pre-malignant prostate lesions (in words) [1]: bound

CSMSAKKKC
enrichment in TRAMP tumors relative to nonrecombinant phage (TRAMP prostate tumors): about 30 fold
binding to TRAMP tumor derived cell suspensions (in words) [4]: robust binding

D(KLAKLAK)2-CREAGRKAC (KLAKLAKKLAKLAKCREAGRKAC) [chimera of REA homing peptide with the pro-apoptotic motif D(KLAKLAK)2]
number of tumor lymphatics (podoplanin staining) [7]: greatly reduced
tumor blood vessel count/density (MECA-32 staining) [7]: unaffected
tumor volume / tumor growth [7]: unaffected
number of tumor lymphatics (podoplanin staining) ([7]; listed as REA conjugate): reduced the number of tumor lymphatics
tumor blood vessel count/density (MECA-32 staining) ([7]; listed as REA conjugate): no effect
tumor volume / tumor growth ([7]; listed as REA conjugate): no effect

FITC-LyP-2: fluorescein-labeled LyP-2 peptide (CNRRTKAGC) ({FITC}-CNRRTKAGC; cysteine pairing not given here)
fluorescent peptide in normal cervix and control tissues [8]: Little or no fluorescence
fluorescent peptide in normal cervix and control tissues [8, 12]: No peptide accumulation was observed
overlap with podoplanin in cervical lesions ([8]; fluorescein-labeled peptide): 82%
co-localization with MECA-32 ([8]; fluorescein-labeled peptide, cervical lesions): not with MECA-32
fluorescent peptide in K14-HPV16/E2 cervical lesions/tumors (in words) [8, 12]: accumulated in the cervical lesions
fluorescent peptide in K14-HPV16/E2 cervical lesions/tumors (in words) ([8]; listed as fluorescein labeled-LyP-2 peptide): homes to cervical carcinoma

Reference: patent US8536132B2, “Lymphatic zip codes in tumors and pre-malignant lesions” (Sanford-Burnham Medical Research Institute, priority 2006, dated 2013)
